{"source": "patent US8178118B2", "about": "“Magnesium compositions and uses thereof for cognitive function” (Magceutics, Inc., priority 2007, dated 2012)", "key": {"[1]": {"test_system": "young, aging and aged rats", "procedure": "Twenty 2-month old, male Sprague Dawley (SD) rats were housed in a temperature-controlled room (22° C. to 25° C.) with a dark period from 08:00 pm to 08:00 am daily. […] Over 7 days before the training and trial period began, each rat was handled and habituated to the maze and to Kellogg's Froot Loop cereal.\nEach rat underwent a test of one trial, followed by an interval of 10-minutes, followed by another trial, and so on, for a total of 6 trials in one day. In each trial, each rat went through a sample run in the maze, followed by an interval of 15 seconds, followed by a choice run in the maze. In the sample run, the subject rat was forced to go to the left or to the right by the presence of a block, according to a pseudorandom sequence (with an equal number of left turns and right turns, and no more than two consecutive turns in the same direction). As a reward, Froot Loop cereal was available in the food well at the end of the run, regardless of the direction that was taken by virtue of the block. In the choice run, the block that had been present in the preceding sample run was removed, and the rat was allowed to choose to go to the left or to the right. As a reward, Froot Loop cereal was available in the food well at the end of the run, only when the rat had made a “correct choice” by choosing the direction opposite that taken in the preceding sample run. […]\nOn the first day (designated day 0) of the feeding of the two groups, as just described, each rat underwent a preliminary test of one trial, followed by an interval of 10 minutes, followed by another trial, and so on, for a total of 4 trials in one day. […] In this preliminary test, the choice accuracy level, or ratio of correct choices made, co, to the number of number of trials in the test, no, was determined for each rat. […]\nThree groups of animals (young, aging, and magnesium-treated aging rats) were used. […] Spatial working memory was assessed using a T-maze non-matching-to-place task. […] Spatial working memory was first assessed on an elevated T-maze. […]"}, "[2]": {"experiment": "magnesium absorption rate in rats (intake versus fecal excretion, ICP-AES)", "details": "FIG. 4, Example 5, Mg gluconate in skim milk or water with 5 weight percent lactose, MgCl2 in water", "procedure": "Fifty 3-month old, male Sprague Dawley (SD) rats were divided into five groups of ten rats. Rats of this age and older are considered adult. Each of the rats was placed in a separate metabolic cage equipped with urine- and feces-collecting wells. All of the rats were maintained in a temperature-controlled room (22° C. to 25° C.) with a dark period from 08:00 pm to 08:00 am daily. From day 1 through day 3, each rat was fed daily 15 g of magnesium-free food and de-ionized water. […] The medium was skim milk for Composition 1 and Group 1, milk prepared from powdered milk, by diluting the powdered milk with water to obtain a composition like that of skim milk, for Composition 2 and Group 2, 1% milk cream in water for Composition 3 and Group 3, water comprising 5 weight percent lactose for Composition 4 and Group 4, and water for the Control Composition and Control Group. […]\nFrom day 4 through day 10, urine from each rat was collected daily. The collected urine from each rat was then pooled together and the total volume of the pooled urine from each rat was recorded. The pooled urine from each rat, in an amount of […], was analyzed for magnesium content using an inductively coupled plasma-atomic emission spectrometer (ICP-AES). […] The pooled feces from each rat, in an amount of 0.5 g, were analyzed for magnesium content using an ICP-AES. […]"}, "rats": {"test_system": "rats", "experiment": "novel object recognition test in rats", "assay_type": "in vivo, rat", "procedure": "In this example, the effect of magnesium supplementation on recognition memory was tested. Three groups of rats were used in these experiments: 1) young rats (three months old); aging rats (12-14 months old), and; 3) magnesium-treated aging rats (12-14 months old, diet supplemented with 6 mg/kg MgCl2 from 8 months of age). We used experimentally naive, female, Sprague-Dawley young […], aging (12-14 month old) and […] rats (Charles River) at the beginning of the behavior experiments. They were housed two per cage with continuous access to food and water under a 12:12 light-dark cycle, with light onset at 8:00 a.m. […] All experiments involving animals were approved by the Massachusetts Institute of Technology's and Tsinghua University Committees on Animal Care.\nThe three groups of rats were tested for recognition memory using an object recognition test with a single exposure to the object during training. The task is based on the natural tendency of rodents to explore new objects and tests the animals' memory capacity for distinguishing novel versus familiar objects.\nBriefly, the rats were first individually habituated to the personnel and then to open-field arena during 2 weeks. […] The retention intervals were 10 min and 24 hours. Objects were cleaned thoroughly between trials with 20% ethanol solution to ensure the absence of olfactory cues. The particular objects for a given trial were randomly determined, but each object was used for only one trial per rat. Memory of the familiar object is associated with increased exploration of the new object and an exploration index (% correct) is calculated as new object inspection time/30.\nIn this example, the effect of magnesium supplementation on memory consolidation was studied. […]\nBriefly, the rats were first individually habituated to the personnel and then to open-field arena during 2 weeks. […] The particular objects for a given trial were randomly determined, but each object was used for only one trial per rat. […]"}, "[3]": {"test_system": "mice genetically altered to present symptoms of Alzheimer's disease (AD)", "experiment": "modified Morris water maze test in AD mice", "assay_type": "in vivo, mouse", "details": "AD mice aged 13 months, FIG. 16", "procedure": "Another group, the control group, of 10 mice that were genetically altered to present symptoms of AD were fed a Control Diet, a diet of normal solid food and water, for 30 days.\nThe pool used was a pool of water in a circular metal tank (150 cm in diameter and 50 cm in depth) having a water height of 30 cm and a water temperature that was maintained at ˜22° C. The pool was placed in a moderately lit area and surrounded by a black curtain. An acrylic platform (15 cm in diameter) was placed 2 cm below the surface of the water in the middle of one quadrant of the pool, equidistant from the center and the edge of the pool. Outside the pool, a cue was placed so as to be visible to a mouse in the maze, allowing a mouse to use it as a landmark for spatial orientation. The cue remained unchanged throughout the test period.\nOn the first day of the training and testing period, the water in the pool was transparent, such that the platform was visible. Each mouse was trained to swim towards the platform and to stand on the platform so as not to be submerged in the pool. […] The amount of time the mouse took to find the platform, referred to as “escape latency,” was recorded for each trial.\nOn the second day of the training and testing period, a small quantity of milk was added to the water in the pool, such that the pool was opaque and the platform was no longer visible. […]"}, "AD mice": {"test_system": "AD mice", "experiment": "physical motility (swimming speed) during water maze test", "assay_type": "in vivo, mouse", "details": "7 months and 15 months of treatment, FIG. 21", "description": "The swimming speed of each mice is calculated from off-analysis."}, "[4]": {"experiment": "brain (brainstem) magnesium concentration in AD mice, ICP-OES", "assay_type": "in vivo, mouse", "details": "AD mice on magnesium diet from 5 month to 21 month of age, FIG. 26A"}, "diabetic patients": {"test_system": "diabetic patients", "details": "nearly 1 g of magnesium daily for 1 month; cited from earlier work"}}}
{"molecule": "[Cl-].[Cl-].[Mg+2]", "note": "[MgCl2, magnesium chloride]", "values": [{"measurement": "asymptotic choice accuracy level after 8 days of training", "setting": "[1]; all three groups (young, aging, magnesium-treated aging rats)", "value": "~94", "unit": "%"}, {"measurement": "learning in non-matching-to-place task, 15 sec delay", "setting": "[1]; magnesium-treated aging rats versus aging rats, p<0.05", "value": "performed significantly better from their first trials"}, {"measurement": "spatial working memory with increased delay between sample and choice trials", "setting": "[1]; magnesium-treated aging rats, p<0.05", "value": "significantly enhanced the performance of the aging rats at 2 and 5 min delays"}, {"measurement": "magnesium absorption rate of the higher dosage compositions (magnesium loading capacity)", "setting": "[2]", "value": "less desirable"}, {"measurement": "novel object exploration preference, 10 minute retention interval", "setting": "rats; aging rats (12-14 months old), 6 mg/kg MgCl2 from 8 months of age, single exposure training, P<0.0001", "value": "preferentially explored the novel object to the same extent as young rats"}, {"measurement": "ability to distinguish novel versus familiar objects after 24 hours", "setting": "rats; aging rats, single exposure training, all groups", "value": "lose there ability to distinguish novel versus familiar objects"}, {"measurement": "preference for the novel object, 24-hour retention interval after spaced training", "setting": "rats; two training sessions separated by 10 minutes, magnesium-treated aging rats", "value": "retained a high level of preference"}]}
{"molecule": "CC12CC3CC(C)(C1)CC(N)(C3)C2", "note": "[memantine]", "values": [{"measurement": "reduction of the effects of AD on learning capacity", "setting": "[3]", "value": "better at reducing the effects of AD on learning capacity than aricept"}]}
{"molecule": "magnesium", "values": [{"measurement": "mobility during the water maze test", "setting": "AD mice", "value": "greatly increased mobility"}, {"measurement": "relation of magnesium intake to brain magnesium", "setting": "[4]", "value": "linearly correlated to the amount of brain magnesium"}]}
{"molecule": "magnesium gluconate", "values": [{"measurement": "magnesium absorption rate of the higher dosage compositions (magnesium loading capacity)", "setting": "[2]", "value": "suitably close to those associated with the lower dosage compositions"}]}
{"molecule": "[O]=[Mg]", "note": "[magnesium oxide]", "values": [{"measurement": "increase of serum magnesium level", "setting": "diabetic patients", "value": "about 10%"}, {"measurement": "metabolic control", "setting": "diabetic patients", "value": "only minor improvement in metabolic control"}]}
